According to paper PMC9798004 (Frontiers in Psychiatry, 2022):

Tests used:
[1] = biological target: CHRM3 (Homo sapiens, UniProt P20309); format: cell-based
[2] = biological target: GPR35 (Homo sapiens, UniProt Q9HC97); assay: PathHunter β-arrestin assay; format: cell-based; conditions: antagonist mode, up to 30 μM
[3] = biological target: T1, CCR10 (Homo sapiens, UniProt P46092); assay: PathHunter β-arrestin assay; format: cell-based; conditions: antagonist mode vs EC80 of control agonist, 10-point curve
T1 sequence (P46092 1-362): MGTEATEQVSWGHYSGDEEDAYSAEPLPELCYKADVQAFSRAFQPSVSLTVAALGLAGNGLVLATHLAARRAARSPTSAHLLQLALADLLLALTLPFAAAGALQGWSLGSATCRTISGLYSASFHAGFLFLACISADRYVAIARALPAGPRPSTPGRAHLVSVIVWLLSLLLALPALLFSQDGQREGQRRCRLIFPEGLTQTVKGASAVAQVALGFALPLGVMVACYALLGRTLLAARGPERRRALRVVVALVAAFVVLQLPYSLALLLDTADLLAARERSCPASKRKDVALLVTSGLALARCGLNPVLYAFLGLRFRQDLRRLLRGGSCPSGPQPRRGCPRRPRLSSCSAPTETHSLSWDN
Summary of the method: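 Targets were first selected by a >5-fold S/N versus CoV difference. Test compound was then titrated over 10 concentrations from 1.5 to 30 μM, with the relevant agonist at EC80 for antagonist readings. Normalized responses were fitted with a four-parameter model to give RC50.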

[4] = biological target: T2, CCR4 (Homo sapiens, UniProt P51679); assay: PathHunter β-arrestin assay; format: cell-based; conditions: antagonist mode vs EC80 of control agonist, 10-point curve
T2 sequence (P51679 1-360): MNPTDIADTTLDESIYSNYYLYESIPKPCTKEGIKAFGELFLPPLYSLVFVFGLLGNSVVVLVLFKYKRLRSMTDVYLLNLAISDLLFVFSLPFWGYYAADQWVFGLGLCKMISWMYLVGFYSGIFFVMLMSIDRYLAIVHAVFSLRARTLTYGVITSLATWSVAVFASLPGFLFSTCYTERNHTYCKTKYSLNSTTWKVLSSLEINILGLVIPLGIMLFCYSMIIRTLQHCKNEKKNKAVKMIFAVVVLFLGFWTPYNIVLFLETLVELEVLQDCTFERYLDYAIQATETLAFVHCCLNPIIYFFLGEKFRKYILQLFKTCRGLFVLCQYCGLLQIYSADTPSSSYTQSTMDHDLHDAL

[5] = biological target: CCR8 (Homo sapiens, UniProt P51685); assay: PathHunter β-arrestin assay; format: cell-based; conditions: antagonist mode vs EC80 of control agonist, 10-point curve
[6] = biological target: T3, HCRTR1 (Homo sapiens, UniProt O43613); assay: PathHunter β-arrestin assay; format: cell-based
T3 sequence (O43613 1-425): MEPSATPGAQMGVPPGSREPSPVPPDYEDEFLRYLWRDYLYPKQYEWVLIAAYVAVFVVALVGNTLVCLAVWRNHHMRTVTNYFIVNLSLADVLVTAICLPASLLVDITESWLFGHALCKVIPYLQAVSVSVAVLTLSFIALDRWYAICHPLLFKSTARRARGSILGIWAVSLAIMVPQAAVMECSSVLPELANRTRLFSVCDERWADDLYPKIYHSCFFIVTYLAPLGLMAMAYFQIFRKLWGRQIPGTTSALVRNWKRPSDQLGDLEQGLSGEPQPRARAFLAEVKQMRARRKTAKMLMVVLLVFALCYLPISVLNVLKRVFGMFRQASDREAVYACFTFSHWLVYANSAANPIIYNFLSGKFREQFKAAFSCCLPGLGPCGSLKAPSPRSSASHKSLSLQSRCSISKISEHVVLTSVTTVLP

[7] = biological target: T4, MRGPRX2 (Homo sapiens, UniProt Q96LB1); assay: PathHunter β-arrestin assay; format: cell-based; conditions: antagonist mode vs EC80 of control agonist, 10-point curve
T4 sequence (Q96LB1 1-330): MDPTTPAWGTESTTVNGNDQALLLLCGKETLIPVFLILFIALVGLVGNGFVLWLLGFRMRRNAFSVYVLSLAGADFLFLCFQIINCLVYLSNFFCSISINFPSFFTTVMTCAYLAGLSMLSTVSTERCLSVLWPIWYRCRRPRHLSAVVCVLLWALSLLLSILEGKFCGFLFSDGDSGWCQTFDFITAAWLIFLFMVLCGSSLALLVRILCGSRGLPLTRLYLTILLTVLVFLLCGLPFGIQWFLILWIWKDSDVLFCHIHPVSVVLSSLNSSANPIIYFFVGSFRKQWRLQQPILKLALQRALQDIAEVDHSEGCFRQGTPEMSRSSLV

[8] = biological target: PTGER4 (Homo sapiens, UniProt P35408); assay: PathHunter β-arrestin assay; format: cell-based; conditions: antagonist mode vs EC80 of control agonist, 10-point curve
[9] = biological target: HRH1 (Homo sapiens, UniProt P35367); format: cell-based
[10] = biological target: HRH2 (Homo sapiens, UniProt P25021); assay: PathHunter β-arrestin assay; format: cell-based; conditions: antagonist mode vs EC80 of control agonist, 10-point curve
[11] = biological target: MC3R (Homo sapiens, UniProt P41968); assay: PathHunter β-arrestin assay; format: cell-based; conditions: antagonist mode vs EC80 of control agonist, 10-point curve
[12] = biological target: MC5R (Homo sapiens, UniProt P33032); assay: PathHunter β-arrestin assay; format: cell-based; conditions: antagonist mode vs EC80 of control agonist, 10-point curve
[13] = biological target: OXTR (Homo sapiens, UniProt P30559); assay: PathHunter β-arrestin assay; format: cell-based; conditions: antagonist mode vs EC80 of control agonist, 10-point curve
[14] = system: 168 GPCRs; assay: gpcrMAX panel 30 μM single-point β-arrestin screen (agonist and antagonist mode); format: cell-based; conditions: antagonist mode
Experimental: Activity, or a “hit,” was defined as >30% in agonist mode, >35% in antagonist mode, or >50% in the orphan screen (agonist mode). Where these criteria were met, signal-to-noise (S/N) and coefficient of variation (CoV) were also calculated, defined as: […]
Agonist mode Antagonist modeS/N Compound mean/Baseline mean+(Baseline SD×3) EC80 mean/Compound-(Compound SD× 3)CoV Baseline mean/Compound mean-(Compound SD× 3) Compound mean/EC80 mean-(EC80 SD × 3)
Hits were verified to have S/N>1 and a CoV <1. Thresholds and subsequent validation were guided by Eurofins. Descriptive data (means ± S.E.M) was generated in Graphpad Prism (version 9.2.0, San Diego, CA).

[15] = system: CB1; set-up: method as in PMID 31513380; conditions: 10 μM; cited from earlier work

HRH1, sequence (P35367 whole entry): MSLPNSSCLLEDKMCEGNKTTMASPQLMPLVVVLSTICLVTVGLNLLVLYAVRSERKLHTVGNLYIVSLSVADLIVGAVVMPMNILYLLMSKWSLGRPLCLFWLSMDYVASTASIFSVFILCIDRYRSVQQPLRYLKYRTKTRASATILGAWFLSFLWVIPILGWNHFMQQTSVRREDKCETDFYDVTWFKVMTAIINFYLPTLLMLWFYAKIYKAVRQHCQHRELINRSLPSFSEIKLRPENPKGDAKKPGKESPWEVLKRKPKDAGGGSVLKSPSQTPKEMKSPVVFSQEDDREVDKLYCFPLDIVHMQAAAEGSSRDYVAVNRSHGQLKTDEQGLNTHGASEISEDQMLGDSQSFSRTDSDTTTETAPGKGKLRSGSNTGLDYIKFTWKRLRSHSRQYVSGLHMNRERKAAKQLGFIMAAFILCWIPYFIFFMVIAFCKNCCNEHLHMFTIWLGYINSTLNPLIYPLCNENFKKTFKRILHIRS
OXTR, sequence (P30559 whole entry): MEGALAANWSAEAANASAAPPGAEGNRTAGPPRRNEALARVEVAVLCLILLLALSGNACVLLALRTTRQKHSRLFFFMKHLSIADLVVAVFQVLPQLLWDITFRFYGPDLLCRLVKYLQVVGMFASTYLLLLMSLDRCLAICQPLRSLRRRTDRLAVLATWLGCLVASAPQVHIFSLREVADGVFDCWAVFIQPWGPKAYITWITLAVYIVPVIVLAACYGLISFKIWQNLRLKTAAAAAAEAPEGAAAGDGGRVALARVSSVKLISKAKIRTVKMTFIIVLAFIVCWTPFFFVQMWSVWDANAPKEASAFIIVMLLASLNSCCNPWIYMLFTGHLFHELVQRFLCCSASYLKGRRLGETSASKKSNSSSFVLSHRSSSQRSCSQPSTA
CHRM3, sequence (P20309 whole entry): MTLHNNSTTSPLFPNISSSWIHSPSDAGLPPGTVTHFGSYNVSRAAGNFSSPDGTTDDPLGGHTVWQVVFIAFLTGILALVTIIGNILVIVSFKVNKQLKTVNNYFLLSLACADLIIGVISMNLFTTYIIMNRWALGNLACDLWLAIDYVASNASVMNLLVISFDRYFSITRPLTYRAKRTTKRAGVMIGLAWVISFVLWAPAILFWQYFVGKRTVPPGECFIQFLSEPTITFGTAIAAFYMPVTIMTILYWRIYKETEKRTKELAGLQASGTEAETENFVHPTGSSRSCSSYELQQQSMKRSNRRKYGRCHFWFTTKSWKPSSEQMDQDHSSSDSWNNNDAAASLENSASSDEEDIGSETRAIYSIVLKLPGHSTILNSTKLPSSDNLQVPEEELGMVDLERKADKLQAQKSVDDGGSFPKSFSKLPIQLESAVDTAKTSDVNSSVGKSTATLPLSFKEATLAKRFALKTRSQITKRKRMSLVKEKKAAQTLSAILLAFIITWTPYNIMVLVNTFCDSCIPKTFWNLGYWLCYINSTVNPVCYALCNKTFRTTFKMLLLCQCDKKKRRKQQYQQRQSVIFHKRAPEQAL
MC3R, sequence (P41968 whole entry): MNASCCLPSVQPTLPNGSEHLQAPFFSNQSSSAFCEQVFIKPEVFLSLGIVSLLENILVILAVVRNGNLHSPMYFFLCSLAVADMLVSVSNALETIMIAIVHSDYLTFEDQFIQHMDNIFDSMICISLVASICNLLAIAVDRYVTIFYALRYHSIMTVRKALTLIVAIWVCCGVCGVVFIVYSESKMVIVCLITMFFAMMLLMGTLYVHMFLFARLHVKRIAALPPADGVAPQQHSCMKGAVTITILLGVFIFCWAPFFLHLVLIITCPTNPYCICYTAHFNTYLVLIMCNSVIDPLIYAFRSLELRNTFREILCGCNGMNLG
PTGER4, sequence (P35408 whole entry): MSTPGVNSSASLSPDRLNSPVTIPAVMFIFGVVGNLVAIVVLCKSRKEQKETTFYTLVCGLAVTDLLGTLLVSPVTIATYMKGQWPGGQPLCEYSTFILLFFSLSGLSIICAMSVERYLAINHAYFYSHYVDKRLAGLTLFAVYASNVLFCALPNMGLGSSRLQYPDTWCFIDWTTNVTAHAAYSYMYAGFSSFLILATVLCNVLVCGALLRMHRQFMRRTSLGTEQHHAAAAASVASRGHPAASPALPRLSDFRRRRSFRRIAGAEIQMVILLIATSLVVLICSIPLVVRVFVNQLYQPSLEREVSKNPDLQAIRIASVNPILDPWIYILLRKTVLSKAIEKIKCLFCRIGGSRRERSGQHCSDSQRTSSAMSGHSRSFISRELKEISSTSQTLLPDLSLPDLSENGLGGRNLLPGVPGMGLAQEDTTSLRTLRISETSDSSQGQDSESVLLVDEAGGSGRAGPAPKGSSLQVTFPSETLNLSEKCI
MC5R, sequence (P33032 whole entry): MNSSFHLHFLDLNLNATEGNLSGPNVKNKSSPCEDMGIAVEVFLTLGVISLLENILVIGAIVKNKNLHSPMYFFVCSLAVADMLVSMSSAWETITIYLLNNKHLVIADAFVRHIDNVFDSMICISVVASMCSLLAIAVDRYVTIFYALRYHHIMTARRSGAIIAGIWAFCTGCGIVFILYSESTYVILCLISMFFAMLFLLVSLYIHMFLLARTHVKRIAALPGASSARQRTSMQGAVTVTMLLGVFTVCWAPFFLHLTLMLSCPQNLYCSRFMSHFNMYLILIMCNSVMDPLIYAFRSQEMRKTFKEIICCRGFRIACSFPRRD
HRH2, sequence (P25021 whole entry): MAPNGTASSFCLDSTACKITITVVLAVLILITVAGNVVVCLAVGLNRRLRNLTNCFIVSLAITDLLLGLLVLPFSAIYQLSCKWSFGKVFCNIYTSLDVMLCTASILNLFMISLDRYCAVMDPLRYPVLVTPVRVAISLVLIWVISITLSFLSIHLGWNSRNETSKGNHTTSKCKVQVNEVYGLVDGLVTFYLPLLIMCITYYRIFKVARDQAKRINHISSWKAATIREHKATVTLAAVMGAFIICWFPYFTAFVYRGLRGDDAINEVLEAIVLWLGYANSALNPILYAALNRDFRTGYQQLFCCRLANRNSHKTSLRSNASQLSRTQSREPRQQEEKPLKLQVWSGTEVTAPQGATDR
CCR8, sequence (P51685 whole entry): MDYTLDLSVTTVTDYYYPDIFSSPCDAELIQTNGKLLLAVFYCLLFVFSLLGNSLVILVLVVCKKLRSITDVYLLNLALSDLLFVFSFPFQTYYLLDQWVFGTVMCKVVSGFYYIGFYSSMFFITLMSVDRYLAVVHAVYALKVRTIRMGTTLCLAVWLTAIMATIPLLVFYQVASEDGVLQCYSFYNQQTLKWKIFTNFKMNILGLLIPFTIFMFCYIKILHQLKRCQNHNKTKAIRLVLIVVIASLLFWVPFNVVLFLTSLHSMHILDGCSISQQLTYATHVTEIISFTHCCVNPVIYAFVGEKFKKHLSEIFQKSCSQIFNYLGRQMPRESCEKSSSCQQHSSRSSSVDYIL
GPR35, sequence (Q9HC97 whole entry): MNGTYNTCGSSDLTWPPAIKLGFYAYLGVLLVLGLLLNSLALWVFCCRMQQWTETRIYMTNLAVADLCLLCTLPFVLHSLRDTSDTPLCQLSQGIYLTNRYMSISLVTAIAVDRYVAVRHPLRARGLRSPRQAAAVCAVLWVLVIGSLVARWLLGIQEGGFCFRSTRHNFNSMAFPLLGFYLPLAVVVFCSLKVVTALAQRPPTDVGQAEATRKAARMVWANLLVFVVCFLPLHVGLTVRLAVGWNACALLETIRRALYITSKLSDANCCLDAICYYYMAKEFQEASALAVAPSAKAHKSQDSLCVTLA

With `COC(=O)[C@@H](NC(=O)c1nn(Cc2ccc(F)cc2)c2ccccc12)C(C)C` [AMB-FUBINACA] as the molecule, how does the IC50 [1] read?
The IC50 was 6.96 µM.

And the “inhibitory activity in concentration-response” value [2]?
Its value is “did not produce any clear activity”.

What about the IC50 [3] of the same molecule?
The IC50 was 12.3 µM.

And the IC50 [4]?
Its IC50 is 11.5 µM.

And the IC50 [5]?
Its IC50 is 7.99 µM.

What about the IC50 ([6]; antagonist mode vs EC80 of control agonist, 10-point curve) of the same molecule?
Its IC50 is 8.59 µM.

What about the maximum inhibition ([6]; antagonist mode, concentration-response up to 30 μM) of the same molecule?
The maximum inhibition was 73.00%.

What about the IC50 [7] of the same molecule?
Its IC50 is 11.8 µM.

And the IC50 [8]?
Its IC50 is 3.13 µM.

What about the IC50 [9] of the same molecule?
The IC50 was 1.42 µM.

What about the “inhibitory activity at lower concentrations” value ([9]; antagonist mode, 1 μM) of the same molecule?
Its value is “appreciable inhibitory activity”.

What about the IC50 [10] of the same molecule?
Its IC50 is 13.1 µM.

What about the IC50 [11] of the same molecule?
Its IC50 is 6.68 µM.

What about the IC50 [12] of the same molecule?
Its IC50 is 14.1 µM.

And the IC50 [13]?
Its IC50 is 12.8 µM.

What about the “mean inhibition 30 μM, targets with >5-fold difference in S/N and CoV (n = 36)” value [14] of the same molecule?
Its value is 97.00 ± 2.54%.

And the “mean inhibition of targets inhibited above 35% threshold” value [14]?
The value was 81.16%.

What about the “number of off-targets inhibited (>35%)” value [14] of the same molecule?
The value was “inhibited the greatest number of targets”.

What about the “time to peak β-arrestin-2 recruitment” value [15] of the same molecule?
Its value is under 10 min.
